Values after ≈ are worked out from the molar mass of the structure shown. Values joined by “and” are separate entries in the source; they are usually repeats but may differ in a detail not shown here. Equal values may be shown once.
How the values were obtained:
[1] = Absorbance peak (Flex Station II); format: physicochemical
Description: (§1) The compounds were dissolved in the solvents and at the concentrations indicated in Table 2 and the absorbance and emission peaks were measured (measured using a Flex Station II, Model 384 by Molecular Devices Comp.).

[2] = Emission peak (Flex Station II); format: physicochemical
Description: as §1

[3] = Solubilization of chromophores in solvents; conditions: 1 M NaOH, aqueous buffer

CCCCCCCCC[C@H](O)CC(=O)CCc1ccc(O)c(OC)c1 [10-Gingerol]
solubility (physchem; organic solvent or mixture): 10000 µg/mL (≈ 28.5 mM) | Absorbance peak (nm) ([1]; gel and liquid): 300 nm (gel and

O=C1c2cccc(O)c2C(=O)c2c(O)cc(CO)cc21 [Aloe-emodin]
solubility (physchem; organic solvent or mixture): 10000 µg/mL (≈ 37 mM) | Emission peak (nm) ([2]; ex. 460 nm, gel): nm, em. 600 nm | Emission peak (nm) ([2]; ex. 460 nm, liquid): ex. 460 nm, em. 588

COc1ccc2cc3[n+](cc2c1OC)CCc1cc2c(cc1-3)OCO2 [Berberine chloride hydrate]
Emission peak (nm) ([2]; ex. 340 nm, gel): ex. 340 nm, em. 538 | Emission peak (nm) ([2]; ex. 430 nm, liquid): nm, em. 545 nm (liquid) | Emission peak (nm) ([2]; ex. 460 nm, gel + liquid): ex. 460 nm, em. 540

O=C(/C=C/c1ccc(O)c(O)c1)OCCc1ccccc1 [Caffeic acid phenethyl ester (CAPE), Caffeic acid phenethyl ester]
solubility (physchem; organic solvent or mixture): 10000 µg/mL (≈ 35.2 mM)

O=C(O)/C=C/c1ccc(O)c(O)c1 [Caffeic acid]
Absorbance peak (nm) ([1]; liquid): 875 nm (liquid)

COc1cc(/C=C/C(=O)/C=C(O)/C=C/c2ccc(O)c(OC)c2)ccc1O [Curcumin]
solubility (physchem; organic solvent or mixture): 5000 µg/mL (≈ 13.6 mM) | Emission peak (nm) ([2]; ex. 390 nm, liquid): em. 540 nm (liquid); | Emission peak (nm) ([2]; ex. 440 nm, gel): ex. 440 nm, em. 552 | Emission peak (nm) ([2]; ex. 460 nm, gel): ex. 460 nm, em. 555 | Emission peak (nm) ([2]; ex. 460 nm, liquid): nm, em. 544 nm | Absorbance peak (nm) ([1]; medium not stated): 440 nm

O=c1oc2c(O)c(O)cc3c(=O)oc4c(O)c(O)cc1c4c23 [Ellagic acid]
Emission peak (nm) ([2]; ex. 370 nm, gel): ex. 370 nm, em. 736 | Absorbance peak (nm) ([1]; gel): (liquid); 370 nm (gel)

O=C1C[C@@](O)(C(=O)O)C(C(=O)O)O1 (stereo partly drawn) [Garcinia acid]
solubility (physchem; organic solvent or mixture): 10000 µg/mL (≈ 52.6 mM) | Absorbance peak (nm) ([1]; gel and liquid): 300 nm (gel and

Cc1cc(O)c2c(=O)c3c(O)cc(O)c4c5c(O)cc(O)c6c(=O)c7c(O)cc(C)c8c1c2c(c34)c(c78)c65 [Hypericin]
solubility [3]: 500 µg/mL (≈ 0.991 mM) | Emission peak (nm) ([2]; ex. 345 nm, liquid): nm, em. 700 nm | Emission peak (nm) ([2]; ex. 460 nm, liquid): ex. 460 nm, em. 700 | Emission peak (nm) ([2]; ex. 620 nm, liquid): em. 700 nm (liquid);

CC(C)=CCC/C(C)=C/C=C/C(C)=C/C=C/C(C)=C/C=C/C=C(C)/C=C/C=C(C)/C=C/C=C(\C)CCC=C(C)C [Lycopene]
solubility (physchem; organic solvent or mixture): 1000 µg/mL (≈ 1.86 mM) | Absorbance peak (nm) ([1]; gel): 490 nm

C/C=C1/[C@H](O[C@@H]2O[C@H](CO)[C@@H](O)[C@H](O)[C@H]2O)OC=C(C(=O)OC)[C@H]1CC(=O)OCCc1ccc(O)c(O)c1 [Oleuropein]
solubility (physchem; organic solvent or mixture): 10000 µg/mL (≈ 18.5 mM) | Absorbance peak (nm) ([1]; gel and liquid): 325 nm (gel and

O=C(/C=C/C=C/c1ccc2c(c1)OCO2)N1CCCCC1 [Piperine]
Emission peak (nm) ([2]; ex. 340 nm, medium not stated): nm, em. 443 nm | Emission peak (nm) ([2]; ex. 460 nm, gel): ex. 460 nm, em. 634 | Absorbance peak (nm) ([1]; medium not stated): 344 nm

Oc1ccc(/C=C/c2cc(O)cc(O)c2)cc1 [Resveratrol]
solubility (physchem; organic solvent or mixture): 10000 µg/mL (≈ 43.8 mM)

C[n+]1cc2c3c(ccc2c2ccc4cc5c(cc4c21)OCO5)OCO3.[Cl-] [Sanguinarine chloride hydrate]
solubility (physchem; organic solvent or mixture): 3330 µg/mL | Emission peak (nm) ([2]; ex. 300 nm, liquid): em. 600 nm (liquid); | Emission peak (nm) ([2]; ex. 330 nm, gel): nm, em. 590 nm | Emission peak (nm) ([2]; ex. 405 nm, liquid): ex. 405 nm, em. 600 | Emission peak (nm) ([2]; ex. 460 nm, gel): ex. 460 nm, em. 591 | Emission peak (nm) ([2]; ex. 460 nm, liquid): nm, em. 600 nm

O=C(OC[C@H]1O[C@@H](OC(=O)c2cc(O)c(O)c(OC(=O)c3cc(O)c(O)c(O)c3)c2)[C@H](OC(=O)c2cc(O)c(O)c(OC(=O)c3cc(O)c(O)c(O)c3)c2)[C@@H](OC(=O)c2cc(O)c(O)c(OC(=O)c3cc(O)c(O)c(O)c3)c2)[C@@H]1OC(=O)c1cc(O)c(O)c(OC(=O)c2cc(O)c(O)c(O)c2)c1)c1cc(O)c(O)c(OC(=O)c2cc(O)c(O)c(O)c2)c1 [Tannic acid]
solubility (physchem; water): 10000 µg/mL (≈ 5.88 mM)

CC1=C(/C=C/C(C)=C/C=C/C(C)=C/C=C/C=C(C)/C=C/C=C(C)/C=C/C2=C(C)C[C@@H](O)CC2(C)C)C(C)(C)C[C@H](O)C1 [Zeaxanthin]
solubility (physchem; organic solvent or mixture): 2000 µg/mL (≈ 3.52 mM) | Emission peak (nm) ([2]; ex. 300 nm, gel): 415 nm and 432 nm and 740 nm and 817 nm | Absorbance peak (nm) ([1]; gel and liquid): 465 nm (gel and
